Key:
[1] = test system: hsp-6::gfp reporter (UPR^mt); assay type: in vivo, Caenorhabditis elegans; details: for Activity in Worm Assay: UPR^mt induction, C. elegans hsp-6::gfp reporter, compounds at 68 µM; for induction of MSR and in particular mitohormesis: summary of screen of 51 tetracycline derivatives; for UPR^mt activation (hsp-6::gfp reporter): 68 µM, 9-TB at 17 μM
[2] = test system: P. aeruginosa; assay: Minimum inhibitory concentration (MIC) of bacterial growth; assay type: cell-based; details: compared with Dox
[3] = test system: E. coli; assay: as above; assay type: cell-based; details: compared with Dox
[4] = test system: mouse bone marrow derived macrophages (BMDM); assay: IFNβ measurement in BMDM culture medium (ELISA); assay type: cell-based; details: ddC 100 μM for 72 hours, Dox 30 μg/ml for 14 hours

Compound | Activity in Worm Assay [1] | also measured
4-oxime minocycline | inactive | –
7,9-bis(2,6-difluoro-4-pyridynyl)-sancycline [7,9-bis3POyr26 diF dox] | – | induction of MSR and in particular mitohormesis [1]: strongly induce MSR; MIC for P. aeruginosa [2]: significantly higher MIC; MIC for E. coli [3]: significantly higher MIC
8-bromo sancycline | – | induction of MSR and in particular mitohormesis [1]: strongly induce MSR; MIC for P. aeruginosa [2]: significantly higher MIC; MIC for E. coli [3]: significantly higher MIC
11,12-pyrazolo doxycycline | inactive | –
CN(C)c1ccc(O)c2c1C[C@H]1C[C@H]3[C@H](N(C)C)C(O)=C(C(N)=O)C4=NNC(O)(C1C2=O)[C@]43O (stereo partly drawn) [1,12-hydroxypyrazolo minocycline] | inactive | –
CN(C)c1ccc(O)c2c1C[C@H]1C[C@H]3[C@H](N(C)C)C(O)=C(C#N)C(=O)[C@@]3(O)C(O)=C1C2=O [2N nitrile minocycline] | inactive | –
C=C1C(=O)c2c(O)ccc(N(C)C)c2C[C@H]1C[C@H](C)[C@@H](C)N(C)C [2N-1,1′-dimethylbutane minocycline] | slight | –
C[C@H]1c2cccc(O)c2C(=O)C2=C(O)[C@]3(O)C(=O)C(C#N)=C(O)[C@@H](N(C)C)[C@@H]3[C@@H](O)[C@@H]21 [2N-nitrile doxycycline] | inactive | –
NC(=O)C1=C(O)C[C@@H]2C[C@@H]3Cc4ccc(N)c(O)c4C(=O)C3=C(O)[C@]2(O)C1=O [4-dedimethyl-amino-9-amino sancycline] | inactive | –
CN(C)c1ccc(O)c2c1C[C@H]1C[C@H]3CC(O)=C(C(N)=O)C(=O)[C@@]3(O)C(O)=C1C2=O [4-dedimethylamino minocycline] | inactive | –
CN(C)c1cc(N)c(O)c2c1C[C@H]1C[C@H]3CC(O)=C(C(N)=O)C(=O)[C@@]3(O)C(O)=C1C2=O [4-dedimethylamino-9-aminominocycline] | inactive | –
CN(C)[C@@H]1C(O)=C(C(N)=O)C(=O)[C@@]2(O)C(O)=C3C(=O)c4c(O)cccc4C(CSC4CCCC4)[C@H]3[C@H](OC(=O)C3CCCC3)[C@@H]12 (stereo partly drawn) [5-cyclopentanoate-13-cyclopentylthio dihydro methacycline] | slight | –
CCCCCC(=O)O[C@H]1[C@H]2C(=C(O)[C@]3(O)C(=O)C(C(N)=O)=C(O)[C@@H](N(C)C)[C@H]13)C(=O)c1c(O)cccc1[C@@H]2C [5-hexanoate doxycycline] | slight | –
CCC(=O)O[C@H]1[C@H]2C(=C(O)[C@]3(O)C(=O)C(C(N)=O)=C(O)[C@@H](N(C)C)[C@H]13)C(=O)c1c(O)cccc1[C@@H]2C [5-propionate doxycycline] | inactive | –
CN(C)[C@@H]1C(O)=C(C(N)=O)C(=O)[C@@]2(O)C(O)=C3C(=O)c4c(O)ccc(/C=C/c5ccccc5)c4C[C@H]3C[C@@H]12 [7-(1-styrylphenyl) sancycline] | inactive | –
CN(C)[C@@H]1C(O)=C(C(N)=O)C(=O)[C@@]2(O)C(O)=C3C(=O)c4c(O)ccc(-c5ccc(F)cc5)c4C[C@H]3C[C@@H]12 [7-(4-fluoro-phenyl)sancycline] | inactive | –
CN(C)[C@@H]1C(O)=C(C(N)=O)C(=O)[C@@]2(O)C(O)=C3C(=O)c4c(O)ccc(Br)c4C[C@H]3C[C@@H]12 [7-bromo sancycline] | – | induction of MSR and in particular mitohormesis [1]: strongly induce MSR; MIC for P. aeruginosa [2]: significantly higher MIC; MIC for E. coli [3]: significantly higher MIC
CCCCc1ccc(O)c2c1C[C@H]1C[C@H]3[C@H](N(C)C)C(O)=C(C(N)=O)C(=O)[C@@]3(O)C(O)=C1C2=O [7-butyl sancycline] | slight | –
CN(C)[C@@H]1C(O)=C(C(N)=O)C(=O)[C@@]2(O)C(O)=C3C(=O)c4c(O)ccc(C5CCCC5)c4C[C@H]3C[C@@H]12 [7-cyclopentyl sancycline] | inactive | –
CN(C)c1cc(-c2sccc2C(=O)O)c(O)c2c1C[C@H]1C[C@H]3[C@H](N(C)C)C(O)C(C(N)=O)C(=O)[C@@]3(O)C(O)=C1C2=O (stereo partly drawn) [9-(2′carboxy-1′-thiophene) minocycline] | inactive | –
CN(C)c1cc(NC(=O)Nc2cc(C(F)(F)F)cc(C(F)(F)F)c2)c(O)c2c1C[C@H]1C[C@H]3[C@H](N(C)C)C(O)=C(C(N)=O)C(=O)[C@@]3(O)C(O)=C1C2=O [9-(3,5-trifluoromethyl-phenylurea) aminominocycline] | inactive | –

Compound | Activity in Worm Assay [1] | also measured
CN(C)c1cc(-c2ccc(C(=O)O)s2)c(O)c2c1C[C@H]1C[C@H]3[C@H](N(C)C)C(O)=C(C(N)=O)C(=O)[C@@]3(O)C(O)=C1C2=O [9-(4′-carboxy-1′-thiophene) minocycline] | inactive | –
CN(C)c1cc(NC(=O)CN2CCCC2)c(O)c2c1C[C@H]1C[C@H]3[C@H](N(C)C)C(O)=C(C(N)=O)C(=O)[C@@]3(O)C(O)=C1C2=O [9-(pyrrolidinyl-methylcarbonyl) aminominocycline] | inactive | –
CC(=O)Nc1ccc2c(c1O)C(=O)C1=C(O)[C@]3(O)C(=O)C(C(N)=O)=C(O)[C@@H](N(C)C)[C@@H]3[C@@H](O)[C@@H]1[C@H]2C [9-acetylamino doxycycline] | inactive | –
CCc1ccc2c(c1O)C(=O)C1=C(O)[C@]3(O)C(=O)C(C(N)=O)=C(O)[C@@H](N(C)C)[C@@H]3[C@@H](O)[C@@H]1[C@H]2C [9-ethyl doxycycline] | inactive | –
CCc1cc(N(C)C)c2c(c1O)C(=O)C1=C(O)[C@]3(O)C(=O)C(C(N)=O)=C(O)[C@@H](N(C)C)[C@@H]3C[C@@H]1C2 [9-ethyl minocycline] | inactive | –
CCOC(=O)/C=C/c1ccc2c(c1O)C(=O)C1=C(O)[C@]3(O)C(=O)C(C(N)=O)=C(O)[C@@H](N(C)C)[C@@H]3[C@@H](O)[C@@H]1[C@H]2C [9-ethylacrylate doxycycline] | slight | –
CN(C)[C@@H]1C(O)=C(C(N)=O)C(=O)[C@@]2(O)C(O)=C3C(=O)c4c(ccc(C(C)(C)C)c4O)C[C@H]3C[C@@H]12 [9-tert-butyl sancycline] | inactive | –
CN(C)c1ccc(OS(=O)(=O)C(F)(F)F)c2c1C[C@H]1C[C@H]3[C@H](N(C)C)C(O)=C(C(N)=O)C(=O)[C@@]3(O)C(O)=C1C2=O [10-triflate minocycline] | inactive | –
CN(C)c1ccc(O)c2c1C[C@H]1C[C@H]3[C@H](N(C)C)C(O)=C(C(N)=O)C(=O)[C@@]3(O)C3NN=C2C31 (stereo partly drawn) [11,12-pyrazolo minocycline] | inactive | –
CN(C)[C@@H]1C(O)=C(C(N)=O)C(=O)[C@@]2(O)C(O)=C3C(=O)c4c(O)cccc4/C(=C\c4ccc(Br)cc4)[C@H]3[C@H](O)[C@@H]12 [13-(4′-bromophenyl) methacycline] | slight | –
COc1ccc(/C=C2\c3cccc(O)c3C(=O)C3=C(O)[C@]4(O)C(=O)C(C(N)=O)=C(O)[C@@H](N(C)C)[C@@H]4[C@@H](O)[C@@H]32)cc1 [13-(4′-methoxyphenyl) methacycline] | slight | –
CN(C)[C@@H]1C(O)=C(C(N)=O)C(=O)[C@@]2(O)C(O)=C3C(=O)c4c(O)cccc4C(CSC4CCCC4)[C@H]3[C@H](O)[C@@H]12 (stereo partly drawn) [13-cyclopentylthio dihydro methacycline] | slight | –
CC(C)SCC1c2cccc(O)c2C(=O)C2=C(O)[C@]3(O)C(=O)C(C(N)=O)=C(O)[C@@H](N(C)C)[C@@H]3[C@@H](O)[C@@H]21 (stereo partly drawn) [13-isopropylthio dihydro methacycline] | slight | –
CN(C)[C@@H]1C(O)=C(C(N)=O)C(=O)[C@@]2(O)C(O)=C3C(=O)c4c(O)cccc4C(CSc4ccccc4)[C@H]3[C@H](O)[C@@H]12 (stereo partly drawn) [13-thiophenyl dihydro methacycline] | slight | –
CN(C)[C@@H]1C(O)=C(C(N)=O)C(=O)[C@@]2(O)C(O)=C3C(=O)c4c(O)cccc4S[C@H]3C[C@@H]12 [Thiatetracycline, reference compound] | inactive | –
CN(C)c1cc(NC(=O)CNC(C)(C)C)c(O)c2c1C[C@H]1C[C@H]3[C@H](N(C)C)C(O)=C(C(N)=O)C(=O)[C@@]3(O)C(O)=C1C2=O [Tygacil ™, reference compound] | slight | UPR^mt activation (hsp-6::gfp reporter) [1]: did not activate
Nc1ccn([C@H]2CC[C@@H](CO)O2)c(=O)n1 [ddC, 2′,3′-dideoxycytidine, reference compound] | – | effect on Dox-induced secretion of IFNβ [4]: abrogated
CN(C)[C@@H]1C(O)=C(C(N)=O)C(=O)[C@@]2(O)C(O)=C3C(=O)c4c(O)ccc(Cl)c4[C@@H](O)[C@H]3C[C@@H]12 [demeclocycline, reference compound] | slight | –
CN(C)c1ccc(O)c2c1C[C@H]1C[C@H]3[C@H](N(C)C)C(O)=C(C(N)=O)C(=O)[C@@]3(O)C(O)=C1C2=O [minocycline, reference compound] | inactive | UPR^mt activation (hsp-6::gfp reporter) [1]: did not activate
CN(C)[C@@H]1C(O)=C(C(N)=O)C(=O)[C@@]2(O)C(O)=C3C(=O)c4c(O)cccc4[C@@](C)(O)[C@H]3[C@H](O)[C@@H]12 [oxytetracycline, reference compound] | slight | –
Omadacycline [reference compound] | inactive | UPR^mt activation (hsp-6::gfp reporter) [1]: did not activate

Source: patent US20240299420A1, “TETRACYCLINE DERIVATIVE-INDUCED MITOHORMESIS MEDIATES DISEASE TOLERANCE AGAINST VIRAL INFECTIONS” (priority 2021, published 2024)
